Test results from patent US11632953B2, “Method for controlling hematophagous or sap-feeding arthropods” (Board of Supervisors of Louisiana State University and …, priority 2016, dated 2023).
pIC50: −log10 of the molar value.

How the values were obtained:
[1] = tested on: honey bees (Apis mellifera); test: acute topical toxicity in adult honey bees; assay type: in vivo; conditions: 48 h, VU041 1 mg/bee (~10 μg/mg), bifenthrin 0.1 μg/bee
Procedure: Frames of late-stage honeybee (A. mellifera) pupae were taken from four colonies at The Ohio State University Honey Bee Lab in Wooster, Ohio, and maintained in a dark humid incubator at 34° C. (Darwin Chambers Co., St. Louis, Mo., model H024) until adult bees emerged. New adults were brushed from frames daily, placed in wooden screen cages (21×14×12 cm), and provided with 1:1 (w/w) sucrose in water.
Acute toxicity experiments in adult bees were performed as follows: Twenty-four hours after emergence, adult honey bees in cages were anaesthetized with carbon dioxide, divided into groups of approximately 20 bees each, and placed in plastic-coated paper cups (177 cm^3; UNIQ Paper Yogurt Cup, Frozen Dessert Supplies, Gilbert, Ariz.) covered with cotton cheesecloth. […] As a positive control, some bees were treated with 3 μl of bifenthrin (0.1 μg/μl). Negative control bees were treated with 3 μl of solvent. Applications were made using a 20 μl micropipette (Fisherbrand Finnpipette F2, Fisher Scientific, Pittsburgh, Pa.) with a disposable plastic tip. […] Toxicity to honey bees was recorded at 48 h, rather than the 24 h used for mosquitoes, to allow for the possibility of delayed toxicity due to the larger body size of the bee. Bees showing no movement 48 h after treatment were scored as dead.

AnKir1 [2] = target: T1, AnKir1 (Anopheles gambiae, UniProt A0A075M2J8); test: thallium (Tl+) flux assay; assay type: cell-based; conditions: SAR libraries; read-out: AnKir1 IC50
T1 sequence (A0A075M2J8 1-555): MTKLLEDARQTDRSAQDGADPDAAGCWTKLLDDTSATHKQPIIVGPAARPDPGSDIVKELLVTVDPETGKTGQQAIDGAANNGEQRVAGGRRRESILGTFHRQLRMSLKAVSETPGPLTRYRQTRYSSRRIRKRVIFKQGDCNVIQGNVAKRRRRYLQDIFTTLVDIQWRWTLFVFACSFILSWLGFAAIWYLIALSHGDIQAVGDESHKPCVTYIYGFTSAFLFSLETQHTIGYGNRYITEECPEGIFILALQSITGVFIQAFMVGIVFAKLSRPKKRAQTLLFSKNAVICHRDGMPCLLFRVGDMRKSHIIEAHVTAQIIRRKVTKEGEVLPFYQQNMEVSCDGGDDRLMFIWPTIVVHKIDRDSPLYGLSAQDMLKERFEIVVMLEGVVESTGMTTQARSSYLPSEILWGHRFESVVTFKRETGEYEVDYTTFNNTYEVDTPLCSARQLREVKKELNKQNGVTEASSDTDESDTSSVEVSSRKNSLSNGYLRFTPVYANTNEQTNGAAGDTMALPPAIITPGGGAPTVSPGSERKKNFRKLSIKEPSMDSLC
Procedure: The thallium flux assay is an in vitro method of measuring conductance through a potassium ion channel. Potassium channels are also permeable to thallium ions. The modulation of a K^+ channel will thus increase or decrease thallium ion flow through the channel and thus, alter the observed fluorescence of a thallium-specific indicator dye.
After 1 hr incubation at room temperature, the dye-loading solution was washed from the plates and replaced with 20 μL/well of assay buffer. The plates were transferred to a Hamamatsu Functional Drug Screening System 6000 (FDSS6000; Hamamatsu, Tokyo, Japan), where 20 μL/well of each of the test compounds in assay buffer was added and allowed to incubate with the cells for 20 min. After incubation, a baseline recording was collected at 1 Hz for 10 s (excitation 470±20 nm, emission 540±30 nm); a thallium stimulus buffer was then added (10 μL/well), and data were then collected for an additional 4 min. […] To ensure the small-molecule vehicle DMSO had no direct effect on AnKir1-dependent Tl^+ flux, the assay's tolerance to different doses of DMSO was evaluated. The robustness and reproducibility of the assay was determined by comparing Tl^+ flux through tetracycline-induced and tetracycline-free cells. The Z′ value was calculated as:
Z′=1−(3SDp+3SDn)/|meanp+meann| where SD is standard deviation, and p and n are control and uninduced flux values, respectively. To compare the effect of DMSO on AnKir1-mediated Tl^+ flux, a one-way ANOVA was performed with a Tukey's multiple comparison test. Prism software (GraphPad Software) was used to generate CRC from Tl^+ flux. Half-inhibition concentration (IC50) values were calculated from fits using a four parameter logistic equation.
Test compounds were transferred to daughter, 384-well polypropylene plates (Greiner Bio-One, Monroe, N.C.) with an Echo555 liquid handler (Labcyte, Sunnyvale, Calif.), and then diluted into assay buffer to generate a 2× stock in 0.6% DMSO (0.3% final). […] Concentration-response curves (CRCs) were generated by screening compounds at 3-fold dilution series (1 nM-30 μM).
Tl^+ flux data were analyzed using Excel (Microsoft Corp, Redmond, Wash.) with XLfit add-in (IDBS, Guildford, Surrey, UK), OriginPro (Origin Lab, Northampton, Mass.), and GraphPad Prism (GraphPad Software, San Diego, Calif., USA) software. Raw data were opened in Excel and each data point in a given trace was divided by the first data point from that trace (static ratio) followed by subtraction of data points from control traces generated with vehicle controls. The slope of the fluorescence increase beginning 5 s after Tl^+ addition and ending 15 s after Tl^+ addition was calculated.
To perform Tl+ flux assays, stably transfected T-Rex-HEK-293 cells expressing AnKir1 channels were cultured overnight in 384-well plates (20,000 cells/20 μL/well), black-walled, clear-bottomed BD Pure Coat amine-coated plates (BD, Bedford, Mass.) with a plating media containing DMEM, 10% dialyzed FBS and 1 μg/mL tetracycline. […] Following 1 hr incubation at room temperature, the dye-loading solution was washed from the plates and replaced with 20 μL/well of assay buffer.

hKir2.1 = hKir2.1 (Homo sapiens (Human), UniProt P63252); test: thallium (Tl+) flux assay; assay type: cell-based; conditions: SAR libraries; read-out: hKir2.1 IC50
Sequence of hKir2.1 (P63252 whole entry): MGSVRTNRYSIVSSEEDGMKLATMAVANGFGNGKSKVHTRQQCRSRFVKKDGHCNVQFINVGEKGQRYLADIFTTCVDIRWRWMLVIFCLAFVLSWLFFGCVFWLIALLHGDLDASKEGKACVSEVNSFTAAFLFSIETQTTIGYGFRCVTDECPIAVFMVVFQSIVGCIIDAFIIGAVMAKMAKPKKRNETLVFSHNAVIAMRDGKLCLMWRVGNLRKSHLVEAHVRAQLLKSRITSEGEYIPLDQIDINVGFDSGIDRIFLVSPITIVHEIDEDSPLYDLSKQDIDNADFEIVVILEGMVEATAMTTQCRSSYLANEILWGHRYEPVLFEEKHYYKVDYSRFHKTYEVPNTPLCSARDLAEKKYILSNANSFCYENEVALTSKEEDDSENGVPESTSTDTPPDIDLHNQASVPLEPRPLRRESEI

[3] = tested on: isolated tick salivary gland; test: fluid secretion (salivation) in the isolated tick salivary gland, modified Ramsay assay; design: species or system Amblyomma americanum; conditions: for Effect on Salivation at 10 minutes (reduction) / reduction of salivary output / saliva secretion compared to control: isolated tick salivary gland
Drosophila melanogaster = test: whole plant or invertebrate; conditions: 100 μM
Procedure: A capillary feeding assay (CAFE) was used to quantify the volume of sucrose solution consumed over a period of time; it was performed essentially as described in W. W. Ja, G. B. Carvalho, E. M. Mak, N. N. de la Rosa, A. Y. Fang, J. C. Liong, T. Brummel, S. Benzer, Prandiology of Drosophila and the CAFE assay. Proceedings of the National Academy of Sciences of the United States of America 104, 8253-8256 (2007); published online EpubMay 15 (10.1073/pnas.0702726104). […] One adult fly was placed into a 2 mL glass vial with a screw lid that was pierced with a glass microcapillary tube having a truncated 200-0 pipette tip. The microcapillary tubes contained 5% (wt/vol) sucrose solution with a 5 μl mineral oil overlay to minimize evaporation. […] Concentrations of 100 μM dopamine and 100 μM fluphenazine were used to determine the influence of those agents on fly feeding. […] All dead flies were excluded from all time points of the study regardless of the time of death. Mean (n>25) values are shown in all figure panels, depicting total consumption.
Times spent feeding in Kir1 and GFP genetic knockdown studies were compared to control values for each day using one-way ANOVA with a Dunns multiple comparisons post-test. Statistical significance for all studies was P<0.05.

An. gambiae [4] = conditions: cited from earlier work; for Resistance Ratio (Akron compared to G3 strain): ED50 Akron/ED50 G3
An. gambiae [5] = test: topical toxicity bioassay in adult female An. gambiae; assay type: in vivo, Anopheles gambiae; conditions: 24 h
Procedure: Topical toxicity bioassays were performed on non-blood-fed adult female mosquitoes. The mosquitoes were chilled on ice for 1-3 minutes, during which 200 nL of compound (dissolved in 95% ethanol) was applied onto the abdomen of each insect with a handheld Hamilton® micro-applicator. […] […] The three resulting ED50 values were averaged. An ethanol-only treatment was included in each experiment as a negative control. Treated mosquitoes were transferred to small cages with access to 10% sucrose and held under rearing conditions for 24 h. Mortality was recorded at 24 h.

AnKir1 [6] = target: T1, AnKir1; test: whole-cell patch clamp electrophysiology; assay type: cell-based; conditions: whole-cell patch clamp, HEK-293T cells
Procedure: Patch electrodes were pulled from silanized 1.5 mm outer diameter borosilicate microhematocrit tubes using a P-1000 Flaming/Brown micropipette puller (Sutter Instrument, Novato Calif., USA). Electrode resistance ranged from 2-4 MΩ. Whole-cell currents were recorded under voltage-clamp conditions using an Axopatch 200B amplifier (Molecular Devices, Sunnyvale, Calif.). Electrical connections to the amplifier used Ag/AgCl wires and 3 M KCl/agar bridges. Electrophysiological data were collected at 5 kHz and filtered at 1 kHz. Data acquisition and analysis were performed using pClamp 9.2 software (Axon Instruments).
Transiently transfected HEK-293T cells expressing AnKir1 were voltage-clamped in the whole-cell configuration of the patch clamp technique. The extracellular bath solution contained (in mM): 135 NaCl, 5 KCl, 2 CaCl2), 1 MgCl2, 5 glucose, 10 HEPES free acid, pH 7.4, 290 mOsm/kg H2O. The pipette solution contained (in mM): 135 KCl, 2 MgCl2, 1 EGTA, 10 HEPES free acid, 2 Na2ATP (Roche, Indianapolis, Ind.), pH 7.3, 275 mOsm. Cells were voltage clamped at −75 mV, stepped to −120 mV for 200 msec, and then ramped to 120 mV at a rate of 2.4 mV/msec. Concentration-response curves (CRCs) were constructed by measuring the effects of increasing doses of inhibitors on AnKir1 currents at −120 mV. All recordings were made at room temperature (20-23° C.).

[7] = tested on: isolated tick salivary gland; test: ion secretion in saliva of the isolated tick salivary gland; design: species or system Amblyomma americanum
Aphis gossypii = test: aphid feeding on treated cotton leaves, electrophenegraph technique; assay type: in vivo; conditions: barium chloride at 300 micromolar
Procedure: FIGS. 14(A) and (B) depict measurements of aphid (Aphis gossypi) feeding on cotton leaves, as measured through the electrophenegraph technique; on control leaves and on leaves treated with the Kir inhibitor barium, respectively.
In aphids, a specific Kir channel blocker (barium chloride at 300 micromolar) was coated onto leaf tissue, and the feeding behavior of the adult aphid was analyzed through the classical electrophenegraph technique.

Aedes aegypti mosquitoes = test: mosquito blood feeding with compound exposure; assay type: in vivo; conditions: compound added to blood
Text: Tolbutamide and glybenclamide are inhibitors of ATP-gated Kir channels.

## Cc1c(COC(=O)[C@@H]2[C@H](/C=C(\Cl)C(F)(F)F)C2(C)C)cccc1-c1ccccc1 (racemic) [bifenthrin, reference compound]
[1]
  mortality of adult honey bees: 100%

## O=C1CCCc2c1ccn2CC(=O)N1CCCc2ccccc21 [Compound 4]
AnKir1 [2]
  pIC50: 4.92
hKir2.1
  pIC50: < 4.52

## O=C(CN1CCCc2ccccc21)N1CCCc2ccccc21 [Compound 6]
AnKir1 [2]
  pIC50: 5.10

## O=C(Cn1nc(C(F)(F)F)c2c1CCCC2)N1CCCC2CCCCC21 (stereo not shown) [Compound 9]
AnKir1 [2]
  pIC50: 5.17
hKir2.1
  pIC50: < 4.52

## O=C(Cn1nc(C(F)(F)F)c2c1CCCC2)N1CCCC(c2ccccc2)C1 (stereo not shown) [Compound 12]
AnKir1 [2]
  pIC50: 5.25
hKir2.1
  pIC50: < 4.52

## CC1CC(C)CN(C(=O)Cn2nc(C(F)(F)F)c3c2CCCC3)C1 (stereo not shown) [Compound 13]
AnKir1 [2]
  pIC50: 5.35
hKir2.1
  pIC50: < 4.52

## O=C(Cn1nc(C(F)(F)F)c2c1CCCC2)N1CCOc2ccccc21 [Compound 14]
AnKir1 [2]
  pIC50: 5.34

## CC(NC(=S)Nc1ccncc1)C(C)(C)C (stereo not shown) [DRS-1]
[3]
  Effect on Salivation at 10 minutes (reduction): Reduced ~80%

## CC(NC(=NC#N)Nc1cccnc1)C(C)(C)C (stereo not shown) [DRS-3]
[3]
  Effect on Salivation at 10 minutes (reduction): Reduced ~100%

## CC(C)(C)CNC(=C[N+](=O)[O-])Nc1ccncc1 [DRS-4]
[3]
  Effect on Salivation at 10 minutes (reduction): Reduced ~83%

## NCCc1ccc(O)c(O)c1 [Dopamine, reference compound]
Drosophila melanogaster; 1 day PE
  increase in sucrose consumption vs control: 1.7 fold
Drosophila melanogaster; 2 days PE
  increase in sucrose consumption vs control: 1.3 fold
Drosophila melanogaster; 3 days PE
  increase in sucrose consumption vs control: 1.2 fold
Drosophila melanogaster; 4 days PE
  increase in sucrose consumption vs control: 1.4 fold

## CC1(C)C(C=C(Cl)Cl)C1C(=O)OCc1cccc(Oc2ccccc2)c1 (stereo not shown) [Permethrin]
An. gambiae [4]
  Resistance Ratio (Akron compared to G3 strain): 33 fold
An. gambiae [4]; topical, Akron strain, from reference 21
  ED50, Akron Strain: 0.001 µg/mg
An. gambiae [4]; topical, G3 strain, from reference 21
  ED50, G3 Strain: 3e-07 µg/mg

## O=C(Cn1ncc2c1CCOC2)N1CCCc2ccccc21 [VU730]
AnKir1 [2]
  pIC50: 5.62
An. gambiae [5]; adult females
  topical toxicity: ED50 similar to that for VU041
An. gambiae [5]; topical, G3 strain, synergists 500 ng/insect four hours prior
  ED50 (95% confidence limits), G3 Strain: 2.4 (2.1-2.9) A μg/mg
AnKir1 [6]
  pIC50: 6.14
hKir2.1
  pIC50: < 4.52

## [Ba+2].[Cl-].[Cl-] [barium chloride]
[7]
  K+ and Na+ ion secretion rates in salivary droplets: significantly reduced
[3]; control 270 nl/5 min, preliminary
  transepithelial fluid secretion: 141 nl/5 min
[3]
  reduction of salivary output / saliva secretion compared to control: approximately 60%
Aphis gossypii
  feeding phases (egestion, salivation, ingestion): inability of treated aphids to salivate

## CNCCC(Oc1ccc(C(F)(F)F)cc1)c1ccccc1 (stereo not shown) [fluoxetine]
[3]
  reduction of salivary output / saliva secretion compared to control: 98%

## O=C(NCCO[N+](=O)[O-])c1cccnc1 [nicorandil]
[7]
  cations (K+ and Na+) concentrations excreted from the salivary glands: significant reduction

## CNC(=O)Oc1ccccc1OC(C)C [propoxur]
An. gambiae [4]
  Resistance Ratio (Akron compared to G3 strain): 101 fold

## CCCCNC(=O)NS(=O)(=O)c1ccc(C)cc1 [tolbutamide]
Aedes aegypti mosquitoes
  reduction of total volume of blood consumed: 99%
